The assay addresses recombinant human ACC2 (Homo sapiens (Human), UniProt O00763). Put plainly: Measurement of inhibitory activity on human ACC2 (MALDI-TOF MS, acetyl CoA to malonyl CoA conversion). The format is biochemical. The conditions noted are these: Table 154. From the text:
Preparation 1: Preparation of Recombinant Human ACC2
After a cDNA encoding human ACC2 (27 amino acid residue to 2458 amino acid residues from the N-terminus) was cloned from human kidney cDNA library (Clontech), human ACC2 gene containing His-tag sequence at 5′ terminus was inserted into pFastBac1 (Invitrogen). Recombinant baculovirus was generated using Bac-to-Bac baculovirus expression system (Invitrogen) according to the manufacturer's protocol. To express human ACC2, Sf-9 cells were infected with recombinant baculovirus. After infected cells were disrupted, the filtrated lysate was subjected to Ni-affinity chromatography and anion-exchange chromatography. The fractions containing human ACC2 protein were pooled as recombinant human ACC2 solution.
The Measurement of Inhibitory Activity on Human ACC1 and the ACC2
Recombinant human ACC1 and recombinant human ACC2, which were prepared by the method mentioned above, were preincubated with assay buffer solution (50 mM HEPES-KOH (pH 7.4), 10 mM magnesium chloride, 6-10 mM potassium citrate, 4 mM reduced form of glutathione, 1.5 mg/ml bovine serum albumin) for one hour. Then, 0.2 μL of each this invention compound solution (in DMSO) were dispensed to 384-well microplate, 5 μL of the preincubated enzyme solution and 5 μL of substrate solution (50 mM HEPES-KOH (pH 7.4), 1 mM ATP, 0.8 mM acetyl CoA and 25-50 mM potassium bicarbonate) were added to microplate. After centrifugation and shaking, the reaction mixtures were incubated in a humidified box at room temperature for 1 to 3 hours. After the incubation, the enzyme reactions were stopped by the addition of EDTA. Then, after the samples were cocrystallized with CHCA (α-cyano-4-hydroxy cinnamic acid) matrices on MALDI target plate, by using the matrix assist laser […] time-of-flight mass spectrometer (MALDI-TOF MS), samples were measured in reflector negative mode. Deprotonated ions of acetyl CoA (AcCoA) of substrate and malonyl CoA (MalCoA) of the reaction product were detected, then, the conversion rates of acetyl CoA to malonyl CoA was calculated by the intensity of [MalCoA-H]−/(Intensity of [MalCoA-H]−+Intensity of [AcCoA-H]−) using each signal strength. […] In addition, potassium citrate concentrations in assay buffer solution, potassium hydrogen carbonate concentrations in substrate solution and incubation time were adjusted by each lot of enzyme.

IC50 data for 51 molecules are collected here from patent US10150728B2, “Alkylene derivatives” (Shionogi & Co., Ltd., priority 2013, dated 2018).

pIC50: −log10 of the molar value.

As a reminder, the pIC50 is the IC50 on a negative log10 scale, so that one unit is a factor of ten.

Chain of recombinant human ACC2 (O00763 27-2458): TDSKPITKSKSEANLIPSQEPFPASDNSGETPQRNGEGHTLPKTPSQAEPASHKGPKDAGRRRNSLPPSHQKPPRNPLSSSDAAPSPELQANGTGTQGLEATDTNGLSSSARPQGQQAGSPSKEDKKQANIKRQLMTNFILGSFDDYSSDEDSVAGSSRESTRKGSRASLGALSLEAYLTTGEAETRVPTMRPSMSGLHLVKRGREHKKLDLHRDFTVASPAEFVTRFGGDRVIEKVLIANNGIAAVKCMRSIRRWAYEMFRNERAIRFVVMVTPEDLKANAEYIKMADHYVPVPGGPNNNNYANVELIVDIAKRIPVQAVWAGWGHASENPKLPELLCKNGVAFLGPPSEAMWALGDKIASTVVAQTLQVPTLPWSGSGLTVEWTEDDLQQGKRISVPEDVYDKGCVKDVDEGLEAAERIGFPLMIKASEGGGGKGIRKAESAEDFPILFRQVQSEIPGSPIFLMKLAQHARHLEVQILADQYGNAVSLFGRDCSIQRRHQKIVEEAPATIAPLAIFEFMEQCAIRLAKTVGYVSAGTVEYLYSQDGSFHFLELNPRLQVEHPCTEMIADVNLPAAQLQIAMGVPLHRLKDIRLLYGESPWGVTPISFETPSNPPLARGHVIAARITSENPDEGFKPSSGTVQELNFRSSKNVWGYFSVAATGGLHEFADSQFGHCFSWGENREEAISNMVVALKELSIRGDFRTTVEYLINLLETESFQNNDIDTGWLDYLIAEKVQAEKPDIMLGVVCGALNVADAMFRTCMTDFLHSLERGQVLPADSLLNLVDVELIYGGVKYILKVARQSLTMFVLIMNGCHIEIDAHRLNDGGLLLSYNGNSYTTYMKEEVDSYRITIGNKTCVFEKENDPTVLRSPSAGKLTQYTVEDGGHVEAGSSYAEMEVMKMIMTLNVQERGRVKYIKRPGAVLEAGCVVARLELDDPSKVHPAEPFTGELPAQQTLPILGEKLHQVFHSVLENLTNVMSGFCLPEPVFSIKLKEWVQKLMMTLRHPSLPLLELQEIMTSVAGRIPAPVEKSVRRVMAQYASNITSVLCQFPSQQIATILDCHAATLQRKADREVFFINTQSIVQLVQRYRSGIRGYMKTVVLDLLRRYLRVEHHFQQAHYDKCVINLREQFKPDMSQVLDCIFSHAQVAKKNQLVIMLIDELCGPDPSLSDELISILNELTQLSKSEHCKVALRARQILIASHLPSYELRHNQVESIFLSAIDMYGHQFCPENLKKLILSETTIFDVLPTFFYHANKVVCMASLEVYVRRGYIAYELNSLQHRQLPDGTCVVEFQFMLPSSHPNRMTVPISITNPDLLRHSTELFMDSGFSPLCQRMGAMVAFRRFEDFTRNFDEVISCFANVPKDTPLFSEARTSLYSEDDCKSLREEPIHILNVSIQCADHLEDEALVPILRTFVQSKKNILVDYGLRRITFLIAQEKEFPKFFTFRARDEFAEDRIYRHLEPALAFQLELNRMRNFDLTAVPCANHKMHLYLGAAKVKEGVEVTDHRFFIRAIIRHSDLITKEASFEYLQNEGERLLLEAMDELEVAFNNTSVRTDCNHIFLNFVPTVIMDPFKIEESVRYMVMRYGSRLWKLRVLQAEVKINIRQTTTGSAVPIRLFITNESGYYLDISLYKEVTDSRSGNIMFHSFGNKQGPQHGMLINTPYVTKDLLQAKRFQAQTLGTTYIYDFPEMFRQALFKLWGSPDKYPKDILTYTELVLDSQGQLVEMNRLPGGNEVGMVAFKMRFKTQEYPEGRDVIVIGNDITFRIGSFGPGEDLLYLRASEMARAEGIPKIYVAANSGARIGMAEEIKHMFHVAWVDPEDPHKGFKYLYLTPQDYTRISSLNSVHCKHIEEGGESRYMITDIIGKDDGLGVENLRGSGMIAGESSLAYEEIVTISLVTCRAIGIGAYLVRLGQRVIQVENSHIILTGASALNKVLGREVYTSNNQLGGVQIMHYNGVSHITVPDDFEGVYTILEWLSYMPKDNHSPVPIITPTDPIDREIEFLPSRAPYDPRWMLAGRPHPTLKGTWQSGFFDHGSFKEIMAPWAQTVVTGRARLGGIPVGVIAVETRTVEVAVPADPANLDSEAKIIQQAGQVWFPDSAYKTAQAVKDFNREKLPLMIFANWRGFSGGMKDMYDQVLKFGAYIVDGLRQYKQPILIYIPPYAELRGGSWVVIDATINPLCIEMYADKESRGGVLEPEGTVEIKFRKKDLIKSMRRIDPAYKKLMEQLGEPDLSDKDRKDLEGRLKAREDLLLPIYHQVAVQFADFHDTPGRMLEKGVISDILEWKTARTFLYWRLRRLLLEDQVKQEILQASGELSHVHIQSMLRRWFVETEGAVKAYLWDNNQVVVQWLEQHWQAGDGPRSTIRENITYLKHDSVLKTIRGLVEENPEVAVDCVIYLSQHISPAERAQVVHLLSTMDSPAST

Regarding `CCCc1ccc(Oc2ccc(OC[C@H](C)NC(C)=O)cn2)c(Cl)c1` [Compound I-004], the negative-log IC50 (pIC50) is 5.43.

On to `CCCc1ccc(Oc2ccc(OC[C@H](C)NC(C)=O)cc2)c(Cl)c1` [Compound I-005], for which the pIC50 is 6.74. Then `CCCc1ccc(Oc2ccc(OC[C@H](C)NC(N)=O)cc2)c(Cl)c1` [Compound I-006], with 6.46; and `CCCc1ccc(Oc2ccc(OC[C@H](C)NC(=O)NCC)cc2)c(Cl)c1` [Compound I-007], with 5.86. The value for `CC(=O)N[C@@H](C)CC(=O)c1ccc(Oc2ccc(OCC3CC3)cc2Cl)nc1` [Compound I-008] was 6.66; that for `CCCc1ccc(Oc2ccc(C(=O)C[C@H](C)NC(C)=O)nc2)c(Cl)c1` [Compound I-009] was 5.97. Then `CCCc1ccc(Oc2ccc(OCC[C@H](C)NC(C)=O)cc2)c(Cl)c1` [Compound I-010], with 6.00; and `CCCc1ccc(Oc2ccc(O[C@@H](C)[C@H](C)NC(C)=O)nc2)c(Cl)c1` [Compound I-011], with 6.92; and `CC(=O)N[C@@H](C)COc1ccc(Oc2ccc3nc(C(C)C)sc3c2Cl)cn1` [Compound I-012], with 7.19. In the case of `CC(=O)N[C@@H](C)COc1ccc(Oc2ccc3nc(C(C)C)sc3c2C#N)cn1` [Compound I-013], the pIC50 is 6.40. Take `CC(=O)N[C@@H](C)[C@H](C)Oc1ccc(Oc2ccc3nc(C(C)C)sc3c2Cl)cn1` [Compound I-014]: the pIC50 is 6.12. Then `CCC(C)(C)c1ccc(Oc2ccc(OC[C@H](C)NC(C)=O)nc2)c(Cl)c1` [Compound I-016], with 6.40. For the molecule `CC(=O)N[C@@H](C)COc1ccc(Oc2ccc3nc(C(C)C)sc3c2F)cn1` [Compound I-018], the pIC50 was 7.12. The value for `CCCc1ccc(Oc2cnc(OC[C@H](C)NC(C)=O)cn2)c(Cl)c1` [Compound I-021] was 6.30. Then `CC(=O)N[C@@H](C)COc1ccc(Oc2ccc3c(c2Cl)CCN(C(=O)OC(C)(C)C)C3)cn1` [Compound I-022], with 5.90.

As for `CC(=O)N[C@@H](C)COc1ccc(Oc2ccc3c(c2Cl)CCN(c2ncc(F)cn2)C3)cn1` [Compound I-023], the pIC50 was 7.42. Then `CC(C)c1nc2ccc(Oc3ccc(OC[C@H](C)NC(N)=O)nc3)c(Cl)c2s1` [Compound I-024], with 6.88.

For the molecule `CC(C)c1nc2ccc(Oc3ccc(OC[C@H](C)NC(=O)CO)nc3)c(Cl)c2s1` [Compound I-025], the negative-log IC50 (pIC50) was 6.19. The value for `CC(=O)N[C@@H](C)COc1cnc(Oc2ccc3nc(C(C)C)sc3c2F)cn1` [Compound I-026] was 7.70; that for `CC(=O)N[C@@H](C)COc1cnc(Oc2ccc3nc(C(C)(C)O)sc3c2Cl)cn1` [Compound I-027] was 6.42; that for `CC(=O)N[C@@H](C)COc1cnc(Oc2ccc3nc(C(C)(F)F)sc3c2Cl)cn1` [Compound I-028] was 7.55. On to `CC(=O)N[C@@H](C)COc1ccc(Oc2cc(F)c3nc(C(C)C)sc3c2Cl)cn1` [Compound I-029], for which the pIC50 was 7.17. `CC(=O)N[C@@H](C)COc1cnc(Oc2ccc3nc(C(C)C)oc3c2F)cn1` [Compound I-031]: the pIC50 was 7.28. Then `CC(=O)N[C@@H](C)COc1cnc(Oc2c(F)cc3nc(C(C)C)sc3c2F)cn1` [Compound I-032], with 7.28. Then `CCC(F)(F)c1nc2ccc(Oc3cnc(OC[C@H](C)NC(C)=O)cn3)c(Cl)c2s1` [Compound I-033], with 7.30. Regarding `CC(=O)N[C@@H](C)COc1cnc(Oc2ccc3nc(C4CC4)sc3c2F)cn1` [Compound I-034], the pIC50 is 7.31. Then `CC(=O)N[C@@H](C)COc1cnc(Oc2ccc3nc(C4(C)CC4)sc3c2Cl)cn1` [Compound I-035], with 6.99; and `CC(=O)N[C@@H](C)COc1cnc(Oc2ccc3nc(C(C)(F)F)sc3c2F)cn1` [Compound I-036], with 7.82; and `CC(=O)N[C@@H](C)COc1cnc(Oc2ccc3nc(C(C)C)sc3c2Cl)cn1` [Compound I-038], with 7.14. The value for `CCOc1nc2ccc(Oc3cnc(OC[C@H](C)NC(C)=O)cn3)c(Cl)c2s1` [Compound I-039] was 7.80. Take `CC(=O)N[C@@H](C)COc1cnc(Oc2ccc3nc(C(C)(F)F)sc3c2C#N)cn1` [Compound I-041]: the negative-log IC50 (pIC50) is 6.99. The value for `CC(=O)N[C@@H](C)CO[C@H]1CC[C@H](Oc2ccc3nc(C(C)C)sc3c2F)CC1` [Compound I-042] was 7.82; that for `CC(=O)N[C@@H](C)COc1cnc(Oc2ccc3nc(C(C)(F)F)oc3c2F)cn1` [Compound I-043] was 7.03; that for `CC(=O)N[C@@H](C)CO[C@H]1CC[C@@H](Oc2ccc3nc(C(C)C)sc3c2F)CC1` [Compound I-044] was 6.12. The value for `CCOc1nc2ccc(Oc3cnc(OC[C@H](C)NC(C)=O)cn3)c(F)c2s1` [Compound I-045] was 8.10; that for `CC(=O)N[C@@H](C)CO[C@H]1CC[C@H](Oc2ccc3nc(C(C)C)sc3c2Cl)CC1` [Compound I-046] was 6.67. Then `CC(=O)N[C@@H](C)CO[C@H]1CC[C@H](Oc2ccc3nc(C(C)(C)O)sc3c2Cl)CC1` [Compound I-047], with 6.47; and `CC(=O)N[C@@H](C)[C@H](C)Oc1cnc(Oc2ccc3nc(C(C)C)sc3c2F)cn1` [Compound I-048], with 7.08; and `CC(=O)N[C@@H](C)[C@@H](C)Oc1cnc(Oc2ccc3nc(C(C)C)sc3c2F)cn1` [Compound I-049], with 6.87. As for `CC(=O)N[C@@H](C)COc1cnc(Oc2ccc3nc(C4(F)CC4)sc3c2F)cn1` [Compound I-050], the pIC50 is 8.00.

Take `CC(=O)N[C@@H](C)CO[C@H]1CC[C@H](Oc2ccc3nc(C(C)C)sc3c2C#N)CC1` [Compound I-051]: the pIC50 is 7.08. On to `CC(=O)N[C@@H](C)CO[C@H]1CC[C@H](Oc2ccc3nc(C(C)(F)F)sc3c2Cl)CC1` [Compound I-052], for which the pIC50 was 6.58. Take `CC(=O)N[C@@H](C)CO[C@H]1CC[C@H](Oc2ccc3nc(C(C)(F)F)sc3c2F)CC1` [Compound I-053]: the pIC50 was 7.92.

Regarding `CCOc1nc2ccc(O[C@H]3CC[C@H](OC[C@H](C)NC(C)=O)CC3)c(Cl)c2s1` [Compound I-054], the pIC50 is 7.82. In the case of `CCOc1nc2ccc(O[C@H]3CC[C@H](OC[C@H](C)NC(C)=O)CC3)c(F)c2s1` [Compound I-055], the pIC50 is 7.89.

Regarding `CC(=O)N[C@@H](C)[C@H](C)Oc1cnc(Oc2ccc3nc(C(C)(F)F)sc3c2F)cn1` [Compound I-056], the pIC50 was 7.24. The value for `CC(=O)N[C@@H](C)[C@@H](C)Oc1cnc(Oc2ccc3nc(C(C)(F)F)sc3c2F)cn1` [Compound I-057] was 6.78; that for `CCOc1nc2ccc(Oc3cnc(O[C@@H](C)[C@H](C)NC(C)=O)cn3)c(F)c2s1` [Compound I-059] was 7.54.

In the case of `CCOc1nc2ccc(Oc3cnc(O[C@H](C)[C@H](C)NC(C)=O)cn3)c(F)c2s1` [Compound I-061], the pIC50 was 6.94. The value for `CC(=O)N[C@@H](C)CO[C@H]1CC[C@H](Oc2ccc3nc(C(C)C)oc3c2F)CC1` [Compound I-062] was 7.62; that for `CCc1nsc2c(Cl)c(Oc3cnc(OC[C@H](C)NC(C)=O)cn3)ccc12` [Compound I-063] was 6.89.
